Measurements: ChEMBL document CHEMBL1149799, “Bioactive peroxides as potential therapeutic agents” (Eur J Med Chem, 2008)
In brackets after ≈: the same amount, converted by molar mass.

Tests used:
P388 = assay: Cytotoxicity against mouse P388 cells; assay type: functional, cell-based; conditions: for IC50 / EC50: Mus musculus, P388; for EC50: read-out: ED50 (the source's name)
LoVo = assay: Cytotoxicity against human LoVo cells; assay type: functional
KB = assay: Cytotoxicity against human KB cells; assay type: functional, cell-based; conditions: for EC50: read-out: ED50 (the source's name)
L1210 = assay: Cytotoxicity against mouse L1210 cells; assay type: functional, cell-based; conditions: for IC50: Mus musculus, L1210
[1] = Cytotoxicity against mouse Ehrlich Ascites carcinoma by trypan blue exclusion assay; assay type: functional
A549 = assay: Cytotoxicity against human A549 cells; assay type: functional, cell-based; conditions: for EC50 / IC50: Homo sapiens, A549; for EC50: read-out: ED50 (the source's name)
HT-29 = assay: Cytotoxicity against human HT29 cells; assay type: functional, cell-based; conditions: for EC50 / IC50: Homo sapiens, HT-29; for EC50: read-out: ED50 (the source's name)
DU-145 = assay: Cytotoxicity against human DU145 cells; assay type: functional, cell-based; conditions: Homo sapiens, DU-145

Structure (SMILES): C/C=C/C=C/CCCCCCCCCCCCC[C@@]1(OC)C=C[C@@H](CC(=O)OC)OO1 [XESTIN B]
- IC50 (P388): 3 µg/mL (≈ 6.87 µM)

Structure (SMILES): CC(CCCC/C=C/CC/C=C\c1ccccc1)C[C@]1(C)C[C@@](C)(CC(=O)O)OO1 (stereo not given in full) [PLAKINIC ACID C]
- MIC (LoVo): 0.1 µg/mL (≈ 0.241 µM)
- MIC (KB; Homo sapiens): 0.01 µg/mL (≈ 0.0241 µM)
- IC50 (L1210): 0.017 µg/mL (≈ 0.041 µM)

Structure (SMILES): C[C@@H]1CCC2[C@@H](C)[C@H](O[C@@H]3O[C@H]4O[C@@]5(C)CC[C@@H]6[C@@H](C)CCC([C@@H]3C)[C@]46OO5)O[C@@H]3O[C@]4(C)CC[C@@H]1[C@@]23OO4 (stereo not given in full)
- IC50 [1]: 1.4 µM
- IC80 [1]: 2.4 µM

Structure (SMILES): C=C1CC[C@H](OO)C(=C)CCC2=C(C(C)C)C(=O)C[C@]2(C)CC1=O
- EC50 (A549): 0.56 µg/mL (≈ 1.68 µM)
- EC50 (HT-29): 0.31 µg/mL (≈ 0.932 µM)
- EC50 (P388): 0.052 µg/mL (≈ 0.156 µM)

Structure (SMILES): C=C(CCCC(C)(C)O)C(=O)CC[C@@]1(C)CC[C@@H]([C@H](C)C(=O)OC)OO1 [AIKUPIKOXIDE D]
- IC50 (A549): > 1 µg/mL
- IC50 (HT-29): > 1 µg/mL
- IC50 (P388): > 1 µg/mL

Structure (SMILES): C=C1C(=O)O[C@H]2C[C@](C)(O)CCC[C@](C)(OO)C/C=C/[C@@]3(C)O[C@H]3C[C@@H]12
- IC50 (P388): 0.1 µg/mL (≈ 0.273 µM)

Structure (SMILES): CC(=O)CCCC(C)(C)C(=O)CC/C(C)=C/CC[C@@]1(C)CC[C@H]([C@H](C)C(=O)O)OO1 [AIKUPIKOXIDE A]
- IC50 (A549): > 1 µg/mL
- IC50 (HT-29): > 1 µg/mL
- IC50 (P388): > 1 µg/mL

Structure (SMILES): COC(=O)C[C@@]1(C)C[C@](C)(CC(C)CCCCCCCCc2ccccc2)OO1 (stereo not given in full) [EPIPLAKINIC ACID E]
- IC50 (A549): 2.5 µg/mL (≈ 6.18 µM)
- IC50 (P388): 2 µg/mL (≈ 4.94 µM)

Structure (SMILES): COC(=O)C[C@@]1(C)C[C@@](C)(CC(C)CC/C=C/CC/C=C/c2ccccc2)OO1 (stereo not given in full)
- MIC (LoVo): 0.1 µg/mL (≈ 0.25 µM)
- MIC (KB; Homo sapiens): 0.1 µg/mL (≈ 0.25 µM)
- IC50 (L1210): 0.003 µg/mL (≈ 0.00749 µM)

Structure (SMILES): C=CC(CC[C@@H](C)[C@H]1CC[C@H]2[C@@H]3C[C@@H](O)C4=CC(=O)CC[C@]4(C)[C@H]3CC[C@]12C)(OO)C(C)C (stereo not given in full)
- EC50 (KB; Homo sapiens, KB): 1.8 µg/mL (≈ 3.92 µM)
- EC50 (A549): 0.64 µg/mL (≈ 1.4 µM)
- EC50 (HT-29): 0.43 µg/mL (≈ 0.937 µM)
- EC50 (P388): 0.4 µg/mL (≈ 0.872 µM)

Structure (SMILES): CC1=C(CCC(C)(O)/C=C/C[C@@]2(C)CC[C@H]([C@H](C)C(=O)O)OO2)C(C)(C)CCC1 (stereo not given in full) [TASNEMOXIDE A]
- IC50 (A549): > 1 µg/mL
- IC50 (HT-29): > 1 µg/mL
- IC50 (P388): > 1 µg/mL

Structure (SMILES): C=C(CCC[C@@]1(C)CC[C@H]([C@H](C)C(=O)OC)OO1)CCC1(O)C(=C)CCCC1(C)C (stereo not given in full) [TASNEMOXIDE C]
- IC50 (A549): > 1 µg/mL
- IC50 (HT-29): > 1 µg/mL
- IC50 (P388): > 1 µg/mL

Structure (SMILES): CC(C)(O)/C=C/C[C@@](C)(O)[C@H]1CC[C@@](C)([C@H]2CC[C@H]([C@]3(C)CC[C@H]([C@](C)(O)C/C=C/C(C)(C)OO)O3)O2)O1
- IC50 (KB; Homo sapiens, KB): 5.3 µg/mL (≈ 9.8 µM)

Structure (SMILES): C=CC(CC[C@@H](C)[C@H]1CC[C@H]2[C@@H]3CC(=O)C4=CC(=O)CC[C@]4(C)[C@H]3CC[C@]12C)(OO)C(C)C (stereo not given in full)
- EC50 (KB; Homo sapiens, KB): 4 µg/mL (≈ 8.76 µM)
- EC50 (A549): 2.5 µg/mL (≈ 5.47 µM)
- EC50 (HT-29): 1.4 µg/mL (≈ 3.07 µM)
- EC50 (P388): 0.8 µg/mL (≈ 1.75 µM)

Structure (SMILES): C=C1CCCC(C)(C)C1(O)CC[C@@]1(C)CC[C@@H]([C@H](C)C(=O)OC)OO1 (stereo not given in full) [AIKUPIKOXIDE B]
- IC50 (A549): > 1 µg/mL
- IC50 (HT-29): > 1 µg/mL
- IC50 (P388): > 1 µg/mL

Structure (SMILES): CC/C=C/C(CC)CC(C)CC1(CC)C=C(CC)C(CC(=O)OC)OO1 (stereo not given)
- IC50 (P388): 0.055 µg/mL (≈ 0.15 µM)

Structure (SMILES): C=C(C)C(CC[C@@H](C)[C@H]1CC[C@H]2[C@@H]3CC=C4C[C@@H](O)CC[C@]4(C)[C@H]3CC[C@]12C)OO (stereo not given in full)
- EC50 (KB; Homo sapiens, KB): 0.33 µg/mL (≈ 0.792 µM)
- EC50 (A549): 0.64 µg/mL (≈ 1.54 µM)
- EC50 (HT-29): 0.43 µg/mL (≈ 1.03 µM)
- EC50 (P388): 0.26 µg/mL (≈ 0.624 µM)

Structure (SMILES): COC(=O)C[C@@]1(C)C[C@@](C)(CC(C)CCCC/C=C/CC/C=C\c2ccccc2)OO1 (stereo not given in full)
- MIC (LoVo): 1 µg/mL (≈ 2.33 µM)
- MIC (KB; Homo sapiens): 0.1 µg/mL (≈ 0.233 µM)
- IC50 (L1210): 0.29 µg/mL (≈ 0.677 µM)

Structure (SMILES): C/C=C/C=C/CCCCCCCCCCC[C@]1(OC)C=C[C@H](CC(=O)OC)OO1
- EC50 (P388): > 10 µg/mL

Structure (SMILES): C/C=C/C=C/CCCCCCCCCCCCC[C@]1(OC)C=C[C@@H](CC(=O)OC)OO1 [XESTIN A]
- IC50 (P388): 0.3 µg/mL (≈ 0.687 µM)

Structure (SMILES): CC(=O)[C@@H]1CC[C@@H](C)[C@@H]2CC[C@]3(C)OO[C@@]12C(=O)O3
- IC50 [1]: > 175 µM
- IC80 [1]: > 175 µM

Structure (SMILES): C/C1=C\CC[C@]2(C)O[C@H]([C@@H]3OC(=O)[C@]4(OO)CCO[C@@H]2C[C@H]34)[C@H](C)CCC1 [PLANAXOOL]
- IC100 (L1210): 2.4 µg/mL

Structure (SMILES): CC(=O)[C@@H]1CC[C@@H](C)[C@@H]2CC[C@]3(C)OO[C@@]12[C@H](OC=O)O3
- IC50 [1]: 91 µM
- IC80 [1]: 156 µM

Structure (SMILES): C=C(CCC1=C(C)CCCC1(C)C)C(O)CC[C@@]1(C)CC[C@H]([C@H](C)C(=O)O)OO1 (stereo not given in full) [TASNEMOXIDE B]
- IC50 (A549): > 1 µg/mL
- IC50 (HT-29): > 1 µg/mL
- IC50 (P388): > 1 µg/mL

Structure (SMILES): C[C@H](C/C=C/C(C)(C)OO)[C@H]1CC[C@H]2[C@@H]3C[C@@H](O)C4=CC(=O)CC[C@]4(C)[C@H]3CC[C@]12C
- EC50 (KB; Homo sapiens, KB): 0.4 µg/mL (≈ 0.929 µM)
- EC50 (A549): 1 µg/mL (≈ 2.32 µM)
- EC50 (HT-29): 0.63 µg/mL (≈ 1.46 µM)
- EC50 (P388): 0.28 µg/mL (≈ 0.65 µM)

Structure (SMILES): C[C@H](C/C=C/C(C)(C)OO)[C@H]1CC[C@H]2[C@@H]3CC=C4C[C@@H](O)CC[C@]4(C)[C@H]3CC[C@]12C
- EC50 (KB; Homo sapiens, KB): 1.41 µg/mL (≈ 3.38 µM)
- EC50 (A549): 1.68 µg/mL (≈ 4.03 µM)
- EC50 (HT-29): 1.27 µg/mL (≈ 3.05 µM)
- EC50 (P388): 0.22 µg/mL (≈ 0.528 µM)

Structure (SMILES): C=C(C)C(CC[C@@H](C)[C@H]1CC[C@H]2[C@@H]3C[C@@H](O)C4=CC(=O)CC[C@]4(C)[C@H]3CC[C@]12C)OO (stereo not given in full)
- EC50 (KB; Homo sapiens, KB): 0.79 µg/mL (≈ 1.83 µM)
- EC50 (A549): 0.58 µg/mL (≈ 1.35 µM)
- EC50 (HT-29): 0.47 µg/mL (≈ 1.09 µM)
- EC50 (P388): 0.22 µg/mL (≈ 0.511 µM)

Structure (SMILES): CCCCCCCC/C=C/C(=O)O[C@@H]1[C@@H](C)[C@@]2(O)[C@H]([C@@H]3C(C)(C)[C@]13OC(C)=O)[C@@H](OO)C(CO)=C[C@]1(O)C(=O)C(C)=C[C@@H]21 [OSTODIN]
- EC50 (KB; Homo sapiens, KB): ≤ 4000 µg/mL
- EC50 (P388): ≤ 4000 µg/mL

Structure (SMILES): C[C@@H]1CC[C@@H]2[C@]34OO[C@@](C)(CC[C@@H]13)O[C@H]4OC(=O)[C@@]2(C)O
- IC50 [1]: > 125 µM
- IC80 [1]: > 125 µM

Structure (SMILES): C=C1C(=O)O[C@H]2[C@H]1[C@H](OC(C)=O)CC(=C)[C@H](OO)CC[C@@]1(C)O[C@H]21 [PEROXYFEROLIDE]
- EC50 (KB; Homo sapiens, KB): 0.29 µg/mL (≈ 0.857 µM)

Structure (SMILES): CC(C)[C@@H](C)C1CC1[C@@H](C)[C@H]1CC[C@@H]2[C@]1(C)CC[C@H]1[C@]23C=C[C@]2(C[C@@H](O)CC[C@]12C)OO3 (stereo not given in full)
- Activity (KB): 2.1 µg/mL
- Activity (A549): 2.7 µg/mL
- Activity (HT-29): 1.4 µg/mL
- Activity (P388): 0.4 µg/mL

Structure (SMILES): C[C@H](C/C=C/C(C)(C)OO)[C@H]1CC[C@H]2[C@@H]3CC(=O)C4=CC(=O)CC[C@]4(C)[C@H]3CC[C@]12C
- EC50 (KB; Homo sapiens, KB): 1.15 µg/mL (≈ 2.68 µM)
- EC50 (A549): 0.88 µg/mL (≈ 2.05 µM)
- EC50 (HT-29): 1.48 µg/mL (≈ 3.45 µM)
- EC50 (P388): 0.53 µg/mL (≈ 1.24 µM)

Structure (SMILES): C=CCCC/C=C/C=C\CCCCCCCC[C@@H]1CC[C@@H]([C@@H]2CC[C@@H](CC(=O)[O-])OO2)O1.[Na+]
- IC50 (A549): 0.1 µg/mL
- IC50 (DU-145): 0.1 µg/mL
- IC50 (HT-29): 0.1 µg/mL
- IC50 (P388): 0.01 µg/mL

Structure (SMILES): COC(=O)[C@@H](C)[C@@H]1CC[C@](C)(CCC(=O)C(C)(C)CCCC(C)=O)OO1 [DIACARPEROXIDE B]
- IC50 (A549): > 1 µg/mL
- IC50 (HT-29): > 1 µg/mL
- IC50 (P388): > 1 µg/mL

Structure (SMILES): CO[C@H]1O[C@@H]2O[C@@]3(C)CC[C@H]4[C@H](C)CC[C@@H]([C@H]1C)[C@@]24OO3
- IC80 [1]: > 125 µM

Structure (SMILES): COc1cccc2c1C(=O)c1c(O)c3c(c(O)c1C2=O)C[C@@](O)(C(=O)CO)C[C@@H]3O[C@H]1C[C@H](N)[C@H](O)[C@H](C)O1 [DOXORUBICIN]
- IC50 (A549): 0.002 µg/mL (≈ 0.00368 µM)

Structure (SMILES): C=C(C)C(CC[C@@H](C)[C@H]1CC[C@H]2[C@@H]3CC(=O)C4=CC(=O)CC[C@]4(C)[C@H]3CC[C@]12C)OO (stereo not given in full)
- EC50 (KB; Homo sapiens, KB): 1.15 µg/mL (≈ 2.68 µM)
- EC50 (A549): 0.88 µg/mL (≈ 2.05 µM)
- EC50 (HT-29): 1.48 µg/mL (≈ 3.45 µM)
- EC50 (P388): 0.53 µg/mL (≈ 1.24 µM)
